Structures can show the parent of a compound that is named as a salt.
Experiments:
[1] = tested on: anaesthetised rabbit model of female sexual arousal; assay: Anaesthetised rabbit model of female sexual arousal: pelvic nerve stimulated genital blood flow (laser Doppler); format: in vivo; details: for Potentiation of pelvic nerve stimulated increases in vaginal blood flow (% increase over basal increase): i.v. infusion, n=4
Description: We have developed an animal model that mimics the physiological arousal response observed during female sexual arousal and directly reflects the clinical data obtained in human volunteers. The model uses Laser Doppler technologies to record small changes in vaginal and clitoral blood flow induced by pelvic nerve stimulation or vasoactive neurotransmitters. During sexual arousal, there is an increase in genital blood flow resulting from increased innervation from the pelvic nerve. The pelvic nerve-stimulated increase in vaginal and clitoral blood flow, observed in the animal model, represents the endogenous vascular effects observed during female sexual arousal. Therefore this model can be used to firstly, identify the mechanisms involved in the regulation of vaginal and clitoral blood flow and secondly, to validate novel approaches for the enhancement of genital blood flow.
(a) The Experimental Details are Described in European patent application EP 1 097 719 A1, Paragraphs [0495]-[0500]
(b) Infusion of Test Compound to Achieve Free Plasma Concentration Equivalent to 0.1 to 100 Times the pA2 α1A and/or α1L Adrenergic Receptors.
To achieve steady state plasma concentrations of the test compound, a loading dose was administered followed by infusion of a steady state dose. The test compound was made up in acidified saline (5% 1M HCl in saline) and details of the infusion protocols are given in the Table below. Test compound and vehicle controls were infused at the same rate. The test compound was infused for 15 minutes prior to pelvic nerve stimulation.
All data are reported as mean±s.e.m. (Standard error of the mean). Significant changes were identified using Student's t-tests (independent).
Compound 1, a potent and selective α1A and/or α1L adrenergic receptor antagonist, enhanced pelvic nerve stimulated (PNS) increases in genital blood flow in the anaesthetised rabbit model of sexual arousal. Repetitive PNS at 15 minute intervals induced reproducible increases in genital blood flow (Open Bar). […] The percentage increase over basal stimulations are showin in table 1 below. […] Data expressed as mean±sem (n=4); all changes were monitored using laser Doppler technologies.

[2] = tested on: FSAD; details: Rosen, R. C. et al (1999) J. Sex Marital Therapy 25, 137-144; cited from earlier work

Structure (SMILES): COc1cc(C2CC2)c2c(=O)[nH]c(N3CCc4nc(CN5CCOCC5)ccc4C3)nc2c1 [Compound 1, 5-cyclopropyl-7-methoxy-2-(2-(4-morpholinylmethyl)-7,8-dihydro[1,6]naphthyridin-6(5H)-yl)-4(3H)-quinazolinone]
- Clitoral blood flow ([1]; data not shown): increased
- Cardiovascular effects ([1]; during infusion): No significant cardiovascular effects
- Potentiation of pelvic nerve stimulated increases in vaginal blood flow (% increase over basal increase) ([1]; free plasma concentration 0.1 × pA2 α1A and/or α1L): 39%
- Potentiation of pelvic nerve stimulated increases in vaginal blood flow (% increase over basal increase) ([1]; free plasma concentration 1 × pA2 α1A and/or α1L): 102%
- Potentiation of pelvic nerve stimulated increases in vaginal blood flow (% increase over basal increase) ([1]; free plasma concentration 10 × pA2 α1A and/or α1L): 104%
- Potentiation of pelvic nerve stimulated increases in vaginal blood flow (% increase over basal increase) ([1]; free plasma concentration 100 × pA2 α1A and/or α1L): 213%
- Pelvic nerve stimulated (PNS) increases in genital blood flow ([1]; submaximal stimulation (eg 4 Hz), versus time matched or vehicle controls): enhanced

Structure (SMILES): Cc1ccc(N(CC2=NCCN2)c2cccc(O)c2)cc1 [Phentolamine mesylate]
- Effect on FSAD in small pilot study [2]: mild improvements

— patent US20040132697A1, “Treatment of female sexual dysfunction” (Pfizer Inc., priority 2002, published 2004)
